Measured values as given in PubChem BioAssay (NCI).
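All cell lines were grown in 96-well plates and treated with compound for 48 hours. TGI is the concentration that stops growth completely.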

How the values were obtained:
Test in all cases: NCI tumour cell line growth inhibition, 48 h
786-0 renal = tested on: 786-0 renal
A549 NSCLC = tested on: A549 NSCLC
ACHN renal = tested on: ACHN renal
CCRF-CEM leukemia = tested on: CCRF-CEM leukemia
DU-145 prostate = tested on: DU-145 prostate
EKVX NSCLC = tested on: EKVX NSCLC
HCC-2998 colon = tested on: HCC-2998 colon
HCT-116 colon = tested on: HCT-116 colon
HCT-15 colon = tested on: HCT-15 colon
HL-60(TB) leukemia = tested on: HL-60(TB) leukemia
HOP-92 NSCLC = tested on: HOP-92 NSCLC
HS 578T breast = tested on: HS 578T breast
HT29 colon = tested on: HT29 colon
IGROV1 ovarian = tested on: IGROV1 ovarian
K-562 leukemia = tested on: K-562 leukemia
KM12 colon = tested on: KM12 colon
LOX IMVI melanoma = tested on: LOX IMVI melanoma
M14 melanoma = tested on: M14 melanoma
MALME-3M melanoma = tested on: MALME-3M melanoma
MCF7 breast = tested on: MCF7 breast
MDA-MB-435 = tested on: MDA-MB-435
MDA-N = tested on: MDA-N
MOLT-4 leukemia = tested on: MOLT-4 leukemia
NCI-H226 lung = tested on: NCI-H226 lung
NCI-H460 lung = tested on: NCI-H460 lung
NCI-H522 lung = tested on: NCI-H522 lung
NCI/ADR-RES ovarian = tested on: NCI/ADR-RES ovarian
OVCAR-3 ovarian = tested on: OVCAR-3 ovarian
OVCAR-4 ovarian = tested on: OVCAR-4 ovarian
OVCAR-5 ovarian = tested on: OVCAR-5 ovarian
OVCAR-8 ovarian = tested on: OVCAR-8 ovarian
PC-3 prostate = tested on: PC-3 prostate
RPMI-8226 leukemia = tested on: RPMI-8226 leukemia
SF-268 CNS = tested on: SF-268 CNS
SF-295 CNS = tested on: SF-295 CNS
SF-539 CNS = tested on: SF-539 CNS
SK-MEL-2 melanoma = tested on: SK-MEL-2 melanoma
SK-MEL-28 melanoma = tested on: SK-MEL-28 melanoma
SK-MEL-5 melanoma = tested on: SK-MEL-5 melanoma
SK-OV-3 ovarian = tested on: SK-OV-3 ovarian
SN12C renal = tested on: SN12C renal
SNB-19 CNS = tested on: SNB-19 CNS
SNB-75 CNS = tested on: SNB-75 CNS
SW-620 colon = tested on: SW-620 colon
T-47D breast = tested on: T-47D breast
TK-10 renal = tested on: TK-10 renal
U251 CNS = tested on: U251 CNS
UACC-257 melanoma = tested on: UACC-257 melanoma
A498 renal = tested on: A498 renal
CAKI-1 renal = tested on: CAKI-1 renal
HOP-62 NSCLC = tested on: HOP-62 NSCLC
MDA-MB-231 breast = tested on: MDA-MB-231 breast
NCI-H23 lung = tested on: NCI-H23 lung
RXF 393 renal = tested on: RXF 393 renal
UO-31 renal = tested on: UO-31 renal
COLO 205 colon = tested on: COLO 205 colon
SR leukemia = tested on: SR leukemia
UACC-62 melanoma = tested on: UACC-62 melanoma

`CC[C@H]1C[C@@H](O)[C@@H]2[C@H](O)[C@H](O)CN2C1` gave a TGI (786-0 renal) of over 100 µM, a TGI (A549 NSCLC) of over 100 µM and a TGI (ACHN renal) of over 100 µM. It also gave a TGI (CCRF-CEM leukemia) of over 100 µM, a TGI (DU-145 prostate) of over 100 µM and a TGI (EKVX NSCLC) of over 100 µM. For the same molecule, the TGI (HCC-2998 colon) was over 100 µM, the TGI (HCT-116 colon) was over 100 µM and the TGI (HCT-15 colon) was over 100 µM. It also gave a TGI (HL-60(TB) leukemia) of over 100 µM, a TGI (HOP-92 NSCLC) of over 100 µM and a TGI (HS 578T breast) of over 100 µM. The TGI (HT29 colon) was over 100 µM, the TGI (IGROV1 ovarian) was over 100 µM and the TGI (K-562 leukemia) was over 100 µM. It also gave a TGI (KM12 colon) of over 100 µM, a TGI (LOX IMVI melanoma) of over 100 µM and a TGI (M14 melanoma) of over 100 µM. For the same molecule, the TGI (MALME-3M melanoma) was over 100 µM, the TGI (MCF7 breast) was over 100 µM and the TGI (MDA-MB-435) was over 100 µM. It also gave a TGI (MDA-N) of over 100 µM, a TGI (MOLT-4 leukemia) of over 100 µM and a TGI (NCI-H226 lung) of over 100 µM. It also gave a TGI (NCI-H460 lung) of over 100 µM, a TGI (NCI-H522 lung) of over 100 µM and a TGI (NCI/ADR-RES ovarian) of over 100 µM. It also gave a TGI (OVCAR-3 ovarian) of over 100 µM, a TGI (OVCAR-4 ovarian) of over 100 µM and a TGI (OVCAR-5 ovarian) of over 100 µM. The TGI (OVCAR-8 ovarian) was over 100 µM, the TGI (PC-3 prostate) was over 100 µM and the TGI (RPMI-8226 leukemia) was over 100 µM. It also gave a TGI (SF-268 CNS) of over 100 µM, a TGI (SF-295 CNS) of over 100 µM and a TGI (SF-539 CNS) of over 100 µM. For the same molecule, the TGI (SK-MEL-2 melanoma) was over 100 µM, the TGI (SK-MEL-28 melanoma) was over 100 µM and the TGI (SK-MEL-5 melanoma) was over 100 µM. It also gave a TGI (SK-OV-3 ovarian) of over 100 µM, a TGI (SN12C renal) of over 100 µM and a TGI (SNB-19 CNS) of over 100 µM. The TGI (SNB-75 CNS) was over 100 µM, the TGI (SW-620 colon) was over 100 µM and the TGI (T-47D breast) was over 100 µM. The TGI (TK-10 renal) was over 100 µM, the TGI (U251 CNS) was over 100 µM and the TGI (UACC-257 melanoma) was over 100 µM.
Molecule `COc1ccc(C2=NN(C(=O)c3ccc(Cl)cc3)C(O)(c3cc(F)c(Cl)cc3Cl)C2)cc1OC` (stereo not drawn) has a TGI (786-0 renal) of over 100 µM, a TGI (A498 renal) of over 100 µM and a TGI (ACHN renal) of over 100 µM. For the same molecule, the TGI (CAKI-1 renal) was 98.4 µM, the TGI (CCRF-CEM leukemia) was over 100 µM and the TGI (DU-145 prostate) was over 100 µM. The TGI (EKVX NSCLC) was over 100 µM, the TGI (HCC-2998 colon) was over 100 µM and the TGI (HCT-116 colon) was over 100 µM. The TGI (HCT-15 colon) was over 100 µM, the TGI (HL-60(TB) leukemia) was 2.2 µM and the TGI (HOP-62 NSCLC) was over 100 µM. It also gave a TGI (HOP-92 NSCLC) of over 100 µM, a TGI (HS 578T breast) of over 100 µM and a TGI (HT29 colon) of over 100 µM. The TGI (IGROV1 ovarian) was over 100 µM, the TGI (K-562 leukemia) was over 100 µM and the TGI (KM12 colon) was over 100 µM. The TGI (LOX IMVI melanoma) was over 100 µM, the TGI (M14 melanoma) was over 100 µM and the TGI (MCF7 breast) was over 100 µM. The TGI (MDA-MB-231 breast) was over 100 µM, the TGI (MDA-MB-435) was over 100 µM and the TGI (MDA-N) was over 100 µM. It also gave a TGI (MOLT-4 leukemia) of over 100 µM, a TGI (NCI-H226 lung) of over 100 µM and a TGI (NCI-H23 lung) of over 100 µM. It also gave a TGI (NCI-H460 lung) of over 100 µM, a TGI (NCI-H522 lung) of over 100 µM and a TGI (NCI/ADR-RES ovarian) of over 100 µM. It also gave a TGI (OVCAR-3 ovarian) of over 100 µM, a TGI (OVCAR-4 ovarian) of over 100 µM and a TGI (OVCAR-5 ovarian) of over 100 µM. It also gave a TGI (OVCAR-8 ovarian) of over 100 µM, a TGI (PC-3 prostate) of over 100 µM and a TGI (RPMI-8226 leukemia) of over 100 µM. The TGI (RXF 393 renal) was over 100 µM, the TGI (SF-268 CNS) was over 100 µM and the TGI (SF-295 CNS) was over 100 µM. For the same molecule, the TGI (SF-539 CNS) was over 100 µM, the TGI (SK-MEL-2 melanoma) was over 100 µM and the TGI (SK-MEL-28 melanoma) was over 100 µM. For the same molecule, the TGI (SK-MEL-5 melanoma) was over 100 µM, the TGI (SK-OV-3 ovarian) was over 100 µM and the TGI (SW-620 colon) was over 100 µM. It also gave a TGI (T-47D breast) of over 100 µM, a TGI (TK-10 renal) of over 100 µM and a TGI (U251 CNS) of over 100 µM. The TGI (UACC-257 melanoma) was over 100 µM and the TGI (UO-31 renal) was 10.9 µM.
In the case of `CCCCCC(/C=N/Nc1ccccc1)C(O)(C(F)(F)F)C(F)(F)F` (stereo not drawn), the TGI (786-0 renal) is reported as over 100 µM, the TGI (A498 renal) is reported as over 100 µM and the TGI (A549 NSCLC) is reported as over 100 µM. It also gave a TGI (ACHN renal) of over 100 µM, a TGI (CAKI-1 renal) of over 100 µM and a TGI (CCRF-CEM leukemia) of over 100 µM. The TGI (COLO 205 colon) was over 100 µM, the TGI (DU-145 prostate) was over 100 µM and the TGI (EKVX NSCLC) was over 100 µM. It also gave a TGI (HCC-2998 colon) of over 100 µM, a TGI (HCT-116 colon) of over 100 µM and a TGI (HCT-15 colon) of over 100 µM. It also gave a TGI (HL-60(TB) leukemia) of over 100 µM, a TGI (HOP-62 NSCLC) of over 100 µM and a TGI (HOP-92 NSCLC) of over 100 µM. The TGI (HS 578T breast) was over 100 µM, the TGI (HT29 colon) was over 100 µM and the TGI (IGROV1 ovarian) was over 100 µM. It also gave a TGI (K-562 leukemia) of over 100 µM, a TGI (LOX IMVI melanoma) of over 100 µM and a TGI (M14 melanoma) of over 100 µM. The TGI (MALME-3M melanoma) was over 100 µM, the TGI (MDA-MB-231 breast) was over 100 µM and the TGI (MDA-MB-435) was over 100 µM. For the same molecule, the TGI (MDA-N) was over 100 µM, the TGI (MOLT-4 leukemia) was over 100 µM and the TGI (NCI-H226 lung) was over 100 µM. The TGI (NCI-H23 lung) was over 100 µM, the TGI (NCI-H460 lung) was over 100 µM and the TGI (NCI-H522 lung) was over 100 µM. The TGI (NCI/ADR-RES ovarian) was over 100 µM, the TGI (OVCAR-3 ovarian) was over 100 µM and the TGI (OVCAR-4 ovarian) was over 100 µM. The TGI (OVCAR-5 ovarian) was over 100 µM, the TGI (OVCAR-8 ovarian) was over 100 µM and the TGI (PC-3 prostate) was over 100 µM. It also gave a TGI (RPMI-8226 leukemia) of over 100 µM, a TGI (RXF 393 renal) of over 100 µM and a TGI (SF-268 CNS) of over 100 µM. The TGI (SF-295 CNS) was over 100 µM, the TGI (SF-539 CNS) was over 100 µM and the TGI (SK-MEL-2 melanoma) was over 100 µM. For the same molecule, the TGI (SK-MEL-28 melanoma) was over 100 µM, the TGI (SK-MEL-5 melanoma) was over 100 µM and the TGI (SK-OV-3 ovarian) was over 100 µM. For the same molecule, the TGI (SN12C renal) was over 100 µM, the TGI (SNB-19 CNS) was over 100 µM and the TGI (SNB-75 CNS) was over 100 µM. For the same molecule, the TGI (SR leukemia) was over 100 µM, the TGI (SW-620 colon) was over 100 µM and the TGI (T-47D breast) was over 100 µM. The TGI (U251 CNS) was over 100 µM, the TGI (UACC-257 melanoma) was over 100 µM and the TGI (UACC-62 melanoma) was over 100 µM. The TGI (UO-31 renal) was over 100 µM.
